Experimental data published in publication PMC11239005, “Preclinical studies of RA475, a guanidine-substituted spirocyclic candidate RPN13/ADRM1 inhibitor for treatment of ovarian cancer” (PLOS ONE, 2024).
“And” between values parts separate entries of the source, which are not always exact repeats. Identical values can stand only once. Counter-ions that a name gives are not always drawn.

Key:
[1] = cited from earlier work
[2] = LogD measurement, shake-flask octanol/PBS pH 7.4; type: physicochemical; settings: octanol/PBS pH 7.4, single injections 1-3
Method: Incubations were carried out in Eppendorf-type polypropylene microtubes in triplicates. A 2.5 μL aliquot of 20 mM DMSO stock of a test compound was added into the previously mutually saturated mixture containing 500 μL of PBS (pH 7.4) and 500 μL of octanol. The solution was allowed to mix in a rotator for 1 hour at 30 rpm. Phase separation was assured by centrifugation for 2 min at 6000 rpm. The octanol phase was diluted 100-fold with 40% acetonitrile, and the aqueous phase (PBS buffer) was diluted 10-fold. The samples (both phases) were analyzed using an HPLC system coupled with a tandem mass spectrometer. […] Calculations of the partition ratios were carried out using the equation below. D=do.So/dp.Sp where:
So–peak area of the analyte in octanol phase
SP–peak area of the analyte in PBS buffer
do–dilution coefficient for octanol phase

[3] = tested on: high molecular weight polyubiquitinated proteins in SKOV3 cells; assay: Anti-ubiquitin immunoblot, SKOV3; type: cell-based; settings: Up284 and RA475 0.5 and 1 μM, RA190 1 μM
Description: (§1) Cell lysate prepared in MPER (Pierce) from each sample was normalized by total protein concentration using the bicinchoninic acid assay and bovine serum albumin standards. Normalized samples were subjected to SDS-PAGE, transferred to PVDF membranes and analyzed by Western blot using antibodies specific to ubiquitin (P4D1, sc-8017, Santa Cruz), PARP (#9542, […]), actin (#66009, Protein Tech Group), Tubulin(#66031, Protein Tech Group), ADRM1/RPN13 (D9Z1U, #12019, Cell Signaling), USP14 (Cell Signal, # 8159), Annexin V (#559763, BD Pharmingen), and for secondary antibodies we utilized either horseradish peroxidase (HRP)-linked anti-mouse IgG or anti-rabbit IgG (GE Healthcare UK Ltd), HRP-linked streptavidin (N100, Thermo Fisher) at the recommended dilution (1:5000).
(§2) Accumulation of high molecular weight polyubiquitinated proteins (polyUb) is a classical phenomenon of proteasome function inhibition due to the stabilization of its substrate.
Fig 3 Impact of RA475 on proteasome function. […] Actin was used as loading control. […] C) 4T1 and HCC1806 cells stably expressing 4UbFL were treated with compounds at indicated doses for 4 h and imaged by IVIS200 after the addition of luciferin substrate (50 μL, 7mg/mL in PBS). […] After a 4 h incubation, the cells were lysed and the luciferase activity in each cell lysate was determined with a luciferase assay kit (Promega) according to the manufacturer’s instructions. Bioluminescence was measured by using a luminometer (Glomax Multidetection system, Promega) E) A patch was shaved of hair on one leg of CD-1 mice, and 10 μg 4UbFL plasmid in 20 μL of PBS was injected into the quadriceps femoralis muscle followed immediately by injection of the 2 Needle Array to 5 mm depth encompassing the injection site and square wave electroporation (ElectroSquarePorator 833, BTX-2 Needle array 5mm gap, Harvard apparatus) delivered as eight pulses at 106V for 20 ms with 200 ms intervals. […] Equally sized areas were analyzed using Living Image 2.20 software. […]

[4] = human and mouse microsomes; cited from earlier work
PEA1 cells = assay: MTT cytotoxicity assay, PEA1; type: cell-based, human; settings: Homo sapiens, PEA1, 72 h
Method: (§3) All cell lines were obtained from the American Type Culture Collection (ATCC) and cultured in the specified medium supplemented with 10% fetal bovine serum, 100 IU/mL penicillin, and 100 μg/mL streptomycin at 37°C in a humidified 5% CO2/95% air incubator. Synthesis of new compounds is described in S1 File, and >95% purity of RA475, Up284 and its analogs were confirmed by NMR and MS. To assess drug cytotoxicity, cells were seeded at 2,500 cells/well (10,000 cells/well for MM lines) in 100 μL medium in 96-well plate as triplicates and after 24 h treated with compounds for a further 72 h. To assess cytotoxicity, the cells were incubated for 2 h at 37°C according to the manufacturer’s protocol with the Thiazolyl Blue Tetrazolium Bromide (20 μL/well of 5 mg/mL stock solution in water) (Sigma, M5655) and A570 measured using a Benchmark Plus microplate spectrophotometer (BIO-RAD). IC50 was estimated using Graphpad Prism 7 software.
(§4) Modifications of Up284 were sought to improve its drug-like properties without significant compromise of its activity in vivo, and several new compounds were synthesized (S1 File). Based on our prior studies of its pharmacophore, the central ring nitrogen was the most logical for addition of charged moieties, including RA475 and RA484. We also examined a change to either 3,4 spiro rings (RA477, RA479), or addition of 3-Fluoro substitutions (RA482) (S1 File). Our focus is developing iRPN13 to treat ovarian cancer resistant to standard of care drug regimens.
A wash-out experiment was performed to assess reversibility of the toxicity. PEA1 cells were treated with RA475 for 1 h before the medium was replaced with fresh culture medium, and the cells were then allowed to grow for another 71 hours (PEA1-WO). In parallel, PEA1 cells were incubated with RA475 continuously for 72 h. […] Possible reasons include slow uptake of RA475, reversible binding and neutralization by antioxidants in the medium.
To study the effect of RA475 in combination with approved therapeutics (DNA damaging agents or radiation) an MTT assay was performed using various concentrations of both drugs. Briefly PEA1 and OVCAR3 cells were each treated with drug combination (RA475 plus cisplatin) for 72 h in a checker board analysis and cell viability was measured using MTT assay. The data were analyzed and plotted using the Synergy Finder web application.

PEA2 = assay: MTT cytotoxicity assay, PEA2; type: cell-based; settings: Homo sapiens; PEA2, 72 h, MTT; read-out: IC50
Method: as §3, §4

[5] = tested on: spontaneous genetically-engineered peritoneal tumor (shp53, AKT, c-Myc); assay: Spontaneous GEMM of primary peritoneal/ovarian cancer; type: in vivo, mouse; settings: C57BL/6; RA475 40 mg/kg IP every 3 days (12 doses); cisplatin 5 mg/Kg weekly (5 doses alone, 3 in combination)
Method: To induce IP tumor formation in immunocompetent mice, oncogenes (shp53, AKT, c-Myc), luciferase and the Sleeping Beauty (SB) transposase (10 μg/plasmid) were diluted in 500 μL of PBS and injected IP into female C57BL/6 mice. The mice were anesthetized by intramuscular injection of 50–100μL of a cocktail of ketamine 16 mg/mL / 3 mg/mL xylazine. The plasmid-injected mice were electroporated (EP) by the BTX ECM 830 square wave EP generator (BTX) (5 pulses, 200 V for 100 ms/pulse, 100 ms intervals between each pulse) with the caliper electrode (BTX) held across the waist of mouse. The mice were followed by IVIS imaging weekly for tracking tumor growth. The mice were sacrificed when the bioluminescence signal reached 10^9 photons/sec/cm^2/sr, or had enlarged abdomens due to the production of ascites, or had health conditions and/or criteria under which early euthanasia was required by the protocol. To track peritoneal tumor growth, bioluminescence imaging was performed by the IVIS Spectrum2000 (PerkinElmer) as the plasmid expressing SB transposase also produces luciferase. Briefly, the mice were injected IP with D-luciferin (GoldBio). After 10 min, the mice were anesthetized with isoflurane, and imaged by the IVIS Spectrum under the auto exposure mode. Bioluminescence in the peritoneal region was quantified as total photon counts/sec/cm^2/sr using Living Image 3.0 Software (Perkin Elmer).
GEMM better mimic the spontaneous development of cancers in an immune competent host than transplantable tumor lines. Female C57BL/6 mice were co-injected IP with sleeping beauty vector and plasmids expressing carrying shp53, AKT, c-Myc and firefly luciferase genes, followed by electroporation (EP) to deliver these plasmid DNA into the peritoneal cavity cells wherein they integrate randomly into their genome. After 7 days mice were imaged by IVIS200 for bioluminescence and randomized. Four groups (n = 8) were treated IP with vehicle or RA475 (40mg/kg, IP, every 3 days) or Cisplatin (5 mg/Kg, once a week) or the combination of RA475 (40mg/Kg, IP, every 3 days) plus Cisplatin (5 mg/Kg, once a week). […] While cisplatin reduced tumor growth, it led to severe toxicity including weight loss >20% that was not evident with RA475 alone.
Fig 7 Administration of RA475, cisplatin or the combination to mice bearing spontaneous, genetically-engineered model ovarian/peritoneal cancer. Female C57BL/6 mice were co-injected IP with sleeping beauty vector and plasmids expressing carrying shp53, AKT, c-Myc and firefly luciferase genes, followed by electroporation (EP) to deliver these plasmid DNA into the peritoneal cavity cells wherein they integrate randomly into their genome. After 7 days mice were imaged by Xenogen IVIS200 for bioluminescence and randomized. […]

MDA-MB-468 cells = assay: Surface Annexin V display by flow cytometry, MDA-MB-468; type: cell-based; settings: MDA-MB-468, 12 h; RA475 1 or 2 μM, ixazomib 1 μM
Method: The percentage of cells initiating apoptosis was assessed with the annexin V FITC assay kit. The cells (2 × 10^5 cells/well) were treated with the described compounds at selected concentrations for 12 h or 16 h, as indicated. The cells were then collected, washed with PBS, resuspended in 100 μL of annexin V-FITC and 7-AAD dual-stain solution (3 μL Annexin V and 3 μL 7AAD, Catalog Number; 559763-BD bioscience), and incubated 20 min in the dark. The samples were then analyzed via flow cytometry using FlowJo V10 software. All experiments were repeated three times.
Supplementary file pone.0305710.s006.tif: S6 Fig RA475 induced apoptosis in a triple negative breast cancer cell line. […] (TIF)

[6] = tested on: high molecular weight polyubiquitinated proteins in OVCAR3 cells; assay: Anti-ubiquitin immunoblot, OVCAR3; type: cell-based, human; settings: Up284 0.5 μM, bortezomib 0.25 μM, ixazomib 0.25 μM, RA475 0.5 or 1 μM
Description: as §1, §2
Fig 3 Impact of RA475 on proteasome function. […] Actin was used as loading control. […] C) 4T1 and HCC1806 cells stably expressing 4UbFL were treated with compounds at indicated doses for 4 h and imaged by IVIS200 after the addition of luciferin substrate (50 μL, 7mg/mL in PBS). D) Sub-confluent cultures of ES2 cells stably expressing 4UbFL were seeded at 10,000 cells/well in 96-well microtiter plates. At 18 h post transfection, cells were treated with compounds or vehicle (DMSO) at the doses indicated. After a 4 h incubation, the cells were lysed and the luciferase activity in each cell lysate was determined with a luciferase assay kit (Promega) according to the manufacturer’s instructions. Bioluminescence was measured by using a luminometer (Glomax Multidetection system, Promega) E) A patch was shaved of hair on one leg of CD-1 mice, and 10 μg 4UbFL plasmid in 20 μL of PBS was injected into the quadriceps femoralis muscle followed immediately by injection of the 2 Needle Array to 5 mm depth encompassing the injection site and square wave electroporation (ElectroSquarePorator 833, BTX-2 Needle array 5mm gap, Harvard apparatus) delivered as eight pulses at 106V for 20 ms with 200 ms intervals. One day post electroporation, mice were anesthetized with isoflurane, injected IP with luciferin (0.3 mg in 100 μL water) and optical imaging was performed to determine basal level luciferase expression. Images were acquired for 10 min with a Xenogen IVIS 200 (Caliper, Hopkinton, MA). Equally sized areas were analyzed using Living Image 2.20 software. Mice were imaged weekly during treatment. […]

CC(C)C[C@H](NC(=O)[C@H](CCc1ccccc1)NC(=O)CN1CCOCC1)C(=O)N[C@@H](Cc1ccccc1)C(=O)N[C@@H](CC(C)C)C(=O)[C@@]1(C)CO1 [Carfilzomib, carfilzomib]
access to the brain [1]: mostly excluded from the brain

COC(=O)Nc1nc2ccc(C(=O)c3ccccc3)cc2[nH]1 [Mebendazole]
D [2]: 8.61E+02 and 8.97E+02 and 8.85E+02

Cl.N[C@@H](Cc1ccccc1)C(=O)N1C/C(=C/c2ccc(Cl)c(Cl)c2)C(=O)/C(=C\c2ccc(Cl)c(Cl)c2)C1 [RA190]
accumulation of high molecular weight polyubiquitinated proteins [3]: robust accumulation of polyUb | breakdown in microsomes compared with RA475 [4]: more rapidly broken down

N#Cc1ccc(/C=C2/C(=O)/C(=C/c3ccc(C#N)cc3)C23CCN(C(=N)N)C3)cc1 [RA477, 1,3-bis((E)-4-cyanobenzylidene)-2-oxo-6-azaspiro[3.4]octane-6-carboximidamide dihydrochloride]
IC50 (PEA1 cells): 331 nM | IC50 (PEA2): 312 nM

N#Cc1ccc(/C=C2/C(=O)/C(=C/c3ccc(C#N)c(F)c3)C23CCN(C(=N)N)C3)cc1F [RA479, 1,3-bis((E)-4-cyano-3-fluorobenzylidene)-2-oxo-6-azaspiro[3.4]octane-6-carboximidamide dihydrochloride]
IC50 (PEA1 cells): 350 nM | IC50 (PEA2): 320 nM

N#Cc1ccc(/C=C2/C(=O)/C(=C/c3ccc(C#N)c(F)c3)C23CCN(C(=N)N)CC3)cc1F [RA482, 1,3-bis((E)-4-cyano-3-fluorobenzylidene)-2-oxo-7-azaspiro[3.5]nonane-7-carboximidamide dihydrochloride]
IC50 (PEA1 cells): 396 nM | IC50 (PEA2): 410 nM

N#Cc1ccc(/C=C2/C(=O)/C(=C/c3ccc(C#N)cc3)C23CCN(C(=N)N2CCOCC2)CC3)cc1 [RA484, 4,4'-((1E,1'E)-(7-(imino(morpholino)methyl)-2-oxo-7-azaspiro[3.5]nonane-1,3-diylidene)bis(methaneylylidene))dibenzonitrile]
IC50 (PEA1 cells): 479 nM | IC50 (PEA2): 522 nM

N.N.[Cl][Pt][Cl] [cisplatin, reference compound]
tumor burden by bioluminescence [5]: significantly better delayed, but did not reduce, tumor burden

CC(C)C[C@H](NC(=O)CNC(=O)c1cc(Cl)ccc1Cl)B(O)O [ixazomib]
apoptosis by surface Annexin V display (MDA-MB-468 cells): initiated apoptosis | forms of polyUb induced [6]: only induced the smaller poly Ub forms, typically <250kDa | access to the brain [1]: mostly excluded from the brain
